This note sets out measurements from PMC8808171, “Nonselective TRPC channel inhibition and suppression of aminoglycoside-induced premature termination codon readthrough by the small molecule AC1903” (The Journal of Biological Chemistry, 2022).

One series concerns the target T1, hPiezo1 (Homo sapiens, UniProt Q92508).
T1 construct: expressed in transfected cells; host or cells: HEK T-REx (tetracycline-induced)
As to the kind of experiment: [Ca2+]i recordings (Fura-2), Piezo1 in HEK T-REx cells. Type of series: cell-based. As for the experimental part:
Based on the findings described above, we wondered whether AC1903—which is typically used as a TRPC5 inhibitor at concentrations of 30–100 μM in cellular assays ([29], [56])—might have limited selectivity for TRPC5 channels and whether its effect on intracellular G418 levels and PTC readthrough might be the consequence of inhibition of other or multiple targets. All well-characterized TRPC channel inhibitors reported to date modulate multiple TRP(C) channels ([34], [35], [36]). […] Because limited data for the selectivity of AC1903 are available in the public domain, we decided to profile AC1903 against a selection of calcium-permeable cation channels by intracellular calcium ([Ca^2+]i) recordings using well-characterized cell lines and TRP channel activators ([46], [57], [58]), and the Ca^2+ indicator Fura-2. In these assays, cells (HEK 293, HEK T-REx, or CHO) overexpressing the relevant ion channel protein and loaded with Fura-2 AM (a cell-permeable precursor of Fura-2) were preincubated with various concentrations of AC1903 or vehicle (DMSO) for 30 min. Then, changes in ratiometric fluorescence (from background) were recorded upon addition of the respective ion channel activator.
HEK T-REx cells expressing tetracycline-inducible TRPC4, TRPC5, TRPC5–C1,TRPC4–C1, and hPiezo1 have been described previously ([46], [57], [59], [78]). […]

The test system of a further series is A498 cells. As to the kind of experiment: Cell viability assay (WST-1), A498 cells, AC1903 alone. Particulars: 0.1–100 μM, 8 h. It counts as cell-based. As for the experimental part:
Cell viability assays were carried out using WST-1 Cell Proliferation Reagent (Merck). A498 cells were plated onto clear 96-well plates at 4000 cells per well and left to adhere for 24 h. Media was then removed, and replaced with fresh media containing 100 nM EA, in presence of either DMSO or 0.1 to 100 μM AC1903. Control wells were treated with vehicle (DMSO) only. To exclude any potential cytotoxic effects of AC1903 itself, cells were incubated with 0.1 to 100 μM AC1903 in absence of EA. Cells were treated in triplicate. Cells were incubated with compounds for 8 h. After 8 h, treatment media was removed and media containing WST-1 reagent (10 μl reagent +100 μl media per well) was added to each well and incubated for 1.5 h at 37 °C. Blank wells contained media and WST-1 reagent (no cells). […] Absorbance was then read at 440 nm and 650 nm (reference wavelength). To analyze data, the value of the 650 nm was subtracted from that of the 440 nm reading. Values across triplicate wells were averaged, and the value from the blank wells subtracted to account for background absorbance. […]
Inhibition of G418-induced premature stop codon readthrough
A498 cytotoxicity . […] Cell viability was calculated as % of control, and the effect of AC1903 was compared to control (0 µM ) (scatter plots showing data from three independent experiments; bars represent mean ± SD; n = 3). […]
A general note: Tetrazolium dyes change colour on reduction, which living cells bring about.

SMILES strings stand for the structures. Entries after “also recorded” stand apart in the source; their conditions may differ.

T1 sequence (Q92508 whole entry): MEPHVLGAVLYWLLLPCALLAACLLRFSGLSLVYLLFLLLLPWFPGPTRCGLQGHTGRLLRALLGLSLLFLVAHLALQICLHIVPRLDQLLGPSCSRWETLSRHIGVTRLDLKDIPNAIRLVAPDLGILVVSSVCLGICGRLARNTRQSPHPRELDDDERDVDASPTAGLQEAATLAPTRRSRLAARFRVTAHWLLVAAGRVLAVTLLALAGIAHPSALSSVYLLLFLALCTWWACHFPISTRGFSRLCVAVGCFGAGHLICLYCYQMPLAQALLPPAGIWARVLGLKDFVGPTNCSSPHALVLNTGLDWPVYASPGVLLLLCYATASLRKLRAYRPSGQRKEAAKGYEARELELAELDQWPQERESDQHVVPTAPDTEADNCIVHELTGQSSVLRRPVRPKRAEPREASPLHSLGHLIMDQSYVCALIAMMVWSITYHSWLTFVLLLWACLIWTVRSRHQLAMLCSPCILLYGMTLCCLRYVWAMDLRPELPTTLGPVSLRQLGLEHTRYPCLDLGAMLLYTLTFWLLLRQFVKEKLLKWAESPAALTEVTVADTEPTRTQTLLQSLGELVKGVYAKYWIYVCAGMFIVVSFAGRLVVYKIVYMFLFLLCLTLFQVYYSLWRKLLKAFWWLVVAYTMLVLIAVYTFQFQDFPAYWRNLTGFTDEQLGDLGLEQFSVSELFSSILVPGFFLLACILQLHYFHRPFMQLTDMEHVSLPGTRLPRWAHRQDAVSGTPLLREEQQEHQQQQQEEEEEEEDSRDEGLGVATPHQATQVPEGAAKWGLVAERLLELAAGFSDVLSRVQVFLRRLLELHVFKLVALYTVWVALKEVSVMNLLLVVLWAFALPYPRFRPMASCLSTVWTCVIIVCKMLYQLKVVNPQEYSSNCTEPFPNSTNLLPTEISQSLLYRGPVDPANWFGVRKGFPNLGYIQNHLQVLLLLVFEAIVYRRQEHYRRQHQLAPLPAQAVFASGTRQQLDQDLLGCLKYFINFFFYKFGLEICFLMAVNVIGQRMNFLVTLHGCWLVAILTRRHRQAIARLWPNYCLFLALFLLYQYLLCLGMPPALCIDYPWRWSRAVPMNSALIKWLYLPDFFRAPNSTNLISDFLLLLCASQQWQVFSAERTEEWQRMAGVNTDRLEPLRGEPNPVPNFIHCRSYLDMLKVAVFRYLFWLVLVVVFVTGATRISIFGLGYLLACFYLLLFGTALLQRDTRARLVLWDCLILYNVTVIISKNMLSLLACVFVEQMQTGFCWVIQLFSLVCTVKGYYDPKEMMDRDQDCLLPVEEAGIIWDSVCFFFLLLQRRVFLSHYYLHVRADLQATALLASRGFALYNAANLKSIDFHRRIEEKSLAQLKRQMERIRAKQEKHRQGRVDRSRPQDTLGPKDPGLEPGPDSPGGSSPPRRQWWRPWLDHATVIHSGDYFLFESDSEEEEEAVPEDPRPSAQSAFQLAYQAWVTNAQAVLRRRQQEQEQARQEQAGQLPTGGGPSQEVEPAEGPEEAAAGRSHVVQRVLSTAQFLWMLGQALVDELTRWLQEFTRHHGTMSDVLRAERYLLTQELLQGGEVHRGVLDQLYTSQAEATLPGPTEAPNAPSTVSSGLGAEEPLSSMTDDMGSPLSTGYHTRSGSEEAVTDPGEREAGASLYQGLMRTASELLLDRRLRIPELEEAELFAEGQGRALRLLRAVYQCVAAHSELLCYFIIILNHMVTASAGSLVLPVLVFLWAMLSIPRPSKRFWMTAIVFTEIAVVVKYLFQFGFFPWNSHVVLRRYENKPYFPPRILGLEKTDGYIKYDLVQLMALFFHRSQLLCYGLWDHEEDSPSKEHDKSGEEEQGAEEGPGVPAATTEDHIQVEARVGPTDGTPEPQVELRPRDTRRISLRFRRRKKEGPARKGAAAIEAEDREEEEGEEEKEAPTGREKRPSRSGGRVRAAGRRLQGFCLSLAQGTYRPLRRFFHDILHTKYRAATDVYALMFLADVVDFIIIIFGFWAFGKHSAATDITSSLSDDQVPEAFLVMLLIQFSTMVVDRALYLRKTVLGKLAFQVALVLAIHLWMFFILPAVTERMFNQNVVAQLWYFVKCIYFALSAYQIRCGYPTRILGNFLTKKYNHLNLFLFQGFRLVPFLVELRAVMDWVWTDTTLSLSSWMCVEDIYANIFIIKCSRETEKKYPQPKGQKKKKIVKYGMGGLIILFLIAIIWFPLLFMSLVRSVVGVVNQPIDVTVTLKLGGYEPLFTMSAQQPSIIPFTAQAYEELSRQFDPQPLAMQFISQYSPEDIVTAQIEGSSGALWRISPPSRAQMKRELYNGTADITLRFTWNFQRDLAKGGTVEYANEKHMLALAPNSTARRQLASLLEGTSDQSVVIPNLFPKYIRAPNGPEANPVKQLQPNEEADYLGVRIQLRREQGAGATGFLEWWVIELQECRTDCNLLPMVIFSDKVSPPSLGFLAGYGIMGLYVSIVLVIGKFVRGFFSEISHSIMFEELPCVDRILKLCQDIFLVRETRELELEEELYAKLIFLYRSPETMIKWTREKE

On to `c1ccc(Cn2c(NCc3ccco3)nc3ccccc32)cc1` [AC1903], for which, at hPiezo1 (AC1903 up to 30 μM), the “inhibition of Yoda1-activated Piezo1 channels” value was “does not affect; also recorded: did not inhibit”. Besides, at hPiezo1 (HEK T-REx, activator Yoda1 (3 μM)), the 50% inhibitory concentration (IC50) is > 100 µM. Besides, the “effect on viability of A498 cells” value in the series on A498 cells was “not toxic; also recorded: did not affect viability”.

For orientation: IC50 means the concentration that gives 50% inhibition. Higher therefore signals a need for much substance.
